The target of one assay is mMC3R (Mus musculus, UniProt P33033). Briefly: cAMP based functional bioassay (CRE/β-galactosidase reporter), agonist activity at mMC3R.
The target of assay [1] is T1, mMC4R (Mus musculus, UniProt P56450). As to the kind of experiment: Schild analysis of antagonist activity at mMC4R.
Experimental: The antagonist activity may also be reported as a Ki value, which is the inverse Log of pA2. […] Compounds were dissolved in DMSO at a stock concentration of 10^−2 M and stored at −20° C. until assayed. HEK-293 cells stably expressing the selected melanocortin receptors were transiently transfected with 4 μg of CRE/β-galactosidase reporter gene. Briefly, 5000-15000 post transfection cells were plated into collagen treated 96-well plates (Nunc) and incubated overnight. […] The assay media was aspirated, and 50 μL of lysis buffer (250 mM Tris-HCl pH=8.0 and 0.1% Triton X-100) was added. The plates were stored at −80° C. overnight. The plates containing the cell lysates were thawed the following day. Aliquots of 10 μL were taken from each well and transferred to another 96-well plate for relative protein determination. To the cell lysate plates, 40 μL of phosphate-buffered saline with 0.5% BSA was added to each well. Subsequently, 150 μL of substrate buffer (60 mM sodium phosphate, 1 mM MgCl2, 10 mM KCl, 5 mM β-mercaptoethanol, 2 mg/mL ONPG) was added to each well and the plates were incubated at 37° C. The sample absorbance, OD405, was measured using a 96-well plate reader (Molecular Devices). The relative protein was determined by adding 200 μL of 1:5 dilution BioRad G250 protein dye:water to the 10 μL of cell lysate sample taken previously, and the OD595 was measured on a 96-well plate reader (Molecular Devices). Data points were normalized to forskolin and the relative protein content were used as positive controls. The EC50 values represent the mean of three or more independent experiments. The EC50 estimates, and their associated standard errors of the mean, were determined by fitting the data to a nonlinear least-squares analysis using the PRISM program (v4.0, GraphPad Inc.).
The reported values are on a log scale. In order to put them into perspective, their approximate binding disassociation constants, Ki values, can be calculated through the following relationship pA2=−Log10 (Ki).
The target in assay [2] is T1, mMC4R. As to the kind of experiment: cAMP based functional bioassay (CRE/β-galactosidase reporter), agonist activity at mMC4R. Also on record: Emax: dose or concentration left out as unconfirmed. The following applies: for mMC4R Activity @ 10 μM (relative activity, percent) / mMC4R Activity @ 10 μM (class): reported where receptor not activated to full activity.
Experimental: (§1) The compounds were evaluated using a whole cell assay.
(§2) Compounds were dissolved in DMSO at a stock concentration of 10^−2 M and stored at −20° C. until assayed. HEK-293 cells stably expressing the selected melanocortin receptors were transiently transfected with 4 μg of CRE/β-galactosidase reporter gene. Briefly, 5000-15000 post transfection cells were plated into collagen treated 96-well plates (Nunc) and incubated overnight. […] The assay media was aspirated, and 50 μL of lysis buffer (250 mM Tris-HCl pH=8.0 and 0.1% Triton X-100) was added. The plates were stored at −80° C. overnight. The plates containing the cell lysates were thawed the following day. Aliquots of 10 μL were taken from each well and transferred to another 96-well plate for relative protein determination. To the cell lysate plates, 40 μL of phosphate-buffered saline with 0.5% BSA was added to each well. Subsequently, 150 μL of substrate buffer (60 mM sodium phosphate, 1 mM MgCl2, 10 mM KCl, 5 mM β-mercaptoethanol, 2 mg/mL ONPG) was added to each well and the plates were incubated at 37° C. The sample absorbance, OD405, was measured using a 96-well plate reader (Molecular Devices). The relative protein was determined by adding 200 μL of 1:5 dilution BioRad G250 protein dye:water to the 10 μL of cell lysate sample taken previously, and the OD595 was measured on a 96-well plate reader (Molecular Devices). Data points were normalized to forskolin and the relative protein content were used as positive controls. The EC50 values represent the mean of three or more independent experiments. The EC50 estimates, and their associated standard errors of the mean, were determined by fitting the data to a nonlinear least-squares analysis using the PRISM program (v4.0, GraphPad Inc.).
(§3) The results are tabulated in the form of EC50 values. In the case where the particular receptor was not activated to full activity at 100,000 nM, then the relative activity was reported.
For a further assay, the target named is mMC5R (Mus musculus, UniProt P41149). Briefly: cAMP based functional bioassay (CRE/β-galactosidase reporter), agonist activity at mMC5R.
Sequence of mMC5R (P41149 whole entry): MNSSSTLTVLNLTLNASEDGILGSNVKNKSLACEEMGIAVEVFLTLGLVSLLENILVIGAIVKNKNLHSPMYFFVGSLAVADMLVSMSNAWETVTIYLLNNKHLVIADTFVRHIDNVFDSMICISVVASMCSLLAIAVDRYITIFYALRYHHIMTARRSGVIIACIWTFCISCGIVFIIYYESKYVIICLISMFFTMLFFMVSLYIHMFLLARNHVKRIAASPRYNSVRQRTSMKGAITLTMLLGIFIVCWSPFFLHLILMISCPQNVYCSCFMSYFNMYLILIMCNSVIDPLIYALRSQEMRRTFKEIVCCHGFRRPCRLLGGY
For the next assay, the target named is mMC1R (Mus musculus, UniProt Q01727). Briefly: cAMP based functional bioassay (CRE/β-galactosidase reporter), agonist activity at mMC1R.
Sequence of mMC1R (Q01727 whole entry): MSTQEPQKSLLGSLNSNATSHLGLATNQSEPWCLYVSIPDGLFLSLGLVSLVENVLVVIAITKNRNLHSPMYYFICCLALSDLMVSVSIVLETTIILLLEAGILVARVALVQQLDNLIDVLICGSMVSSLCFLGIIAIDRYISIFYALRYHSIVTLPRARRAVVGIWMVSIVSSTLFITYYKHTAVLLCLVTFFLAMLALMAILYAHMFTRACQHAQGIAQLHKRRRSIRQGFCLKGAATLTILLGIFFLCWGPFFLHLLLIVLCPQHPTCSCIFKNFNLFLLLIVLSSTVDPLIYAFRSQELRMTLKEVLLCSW
Where [3] appears, read: reported where receptor not activated to full activity.

We go through six compounds from patent US11932628B2, “Selective small molecule peptidomimetic melanocortin ligands” (REGENTS OF THE UNIVERSITY OF MINNESOTA, priority 2021, dated 2024).

Sequence of mMC3R (P33033 whole entry): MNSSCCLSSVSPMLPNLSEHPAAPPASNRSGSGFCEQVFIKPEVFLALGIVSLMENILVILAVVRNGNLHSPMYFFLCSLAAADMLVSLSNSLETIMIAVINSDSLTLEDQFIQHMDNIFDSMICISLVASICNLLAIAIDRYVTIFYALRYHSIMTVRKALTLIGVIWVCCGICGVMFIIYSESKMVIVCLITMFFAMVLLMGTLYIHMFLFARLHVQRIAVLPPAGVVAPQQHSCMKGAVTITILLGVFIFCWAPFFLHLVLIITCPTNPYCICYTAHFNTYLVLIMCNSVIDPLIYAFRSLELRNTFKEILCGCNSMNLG
T1 sequence (P56450 whole entry): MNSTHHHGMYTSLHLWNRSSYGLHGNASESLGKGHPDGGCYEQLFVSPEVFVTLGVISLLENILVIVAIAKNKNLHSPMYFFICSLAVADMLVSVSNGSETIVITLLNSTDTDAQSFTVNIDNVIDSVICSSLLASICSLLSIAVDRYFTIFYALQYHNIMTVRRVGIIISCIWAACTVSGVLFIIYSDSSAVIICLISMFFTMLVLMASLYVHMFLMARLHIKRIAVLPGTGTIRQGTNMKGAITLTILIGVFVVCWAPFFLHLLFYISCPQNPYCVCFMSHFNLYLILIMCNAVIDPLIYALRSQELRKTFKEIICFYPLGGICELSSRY
Experimental for mMC1R: as §1, §2, §3
Experimental for mMC3R: as §1, §2, §3
Experimental for mMC5R: as §1, §2, §3

The EC50 is the midpoint of the concentration-response curve. One may read the Kb as the equilibrium dissociation constant of an antagonist, usually derived from a functional assay. As for `CC(C)C[C@@H]1CNC(=N)N1C[C@@H]1CCCN1C[C@@H](CC1CCCCC1)N1C[C@@H]([C@@H](C)O)N(CC23CC4CC(CC(C4)C2)C3)C1=N` [TPI 2509-4, (R)-1-((S)-3-(adamantan-1-ylmethyl)-1-((R)-1-cyclohexyl-3-((S)-2-(((R)-2-imino-5-isobutylimidazolidin-1-yl)methyl)pyrrolidin-1-yl)propan-2-yl)-2-iminoimidazolidin-4-yl)ethanol], the EC50 is 0.24 ± 0.04 µM on mMC3R, 0.34 ± 0.14 µM at mMC5R and 0.33 ± 0.11 µM on mMC1R. The same compound came in with an antagonist dissociation constant (Kb) on mMC4R [1] of 3.16 µM. Further, the “mMC4R Activity @ 10 μM (relative activity, percent)” value on mMC4R [2] was 55%.

Consider `CC(C)[C@@H]1CNC(=N)N1C[C@@H]1CCCN1C[C@@H](CC1CCCCC1)N1C[C@@H]([C@@H](C)O)N(CC23CC4CC(CC(C4)C2)C3)C1=N` [TPI 2509-22, (R)-1-((S)-3-(adamantan-1-ylmethyl)-1-((R)-1-cyclohexyl-3-((S)-2-(((R)-2-imino-5-isopropylimidazolidin-1-yl)methyl)pyrrolidin-1-yl)propan-2-yl)-2-iminoimidazolidin-4-yl)ethanol], for which the values for the EC50 at mMC3R, at mMC5R and on mMC1R were 0.37 ± 0.09 µM, 0.6 ± 0.21 µM and 0.2 ± 0.08 µM, respectively. At mMC4R [1], this compound had a Kb of 1.58 µM. Also, at mMC4R [2], the “mMC4R Activity @ 10 μM (class)” value is given as “A (A: <50%)”. Also, at mMC4R [2], the “mMC4R Activity @ 10 μM (relative activity, percent)” value was determined as 49%.

For `CC(C)C[C@@H]1CNC(=N)N1C[C@@H]1CCCN1C[C@@H](Cc1ccccc1)N1C[C@@H]([C@@H](C)O)N(CC23CC4CC(CC(C4)C2)C3)C1=N` [TPI 2509-13, (R)-1-((S)-3-(adamantan-1-ylmethyl)-2-imino-1-((R)-1-((S)-2-(((R)-2-imino-5-isobutylimidazolidin-1-yl)methyl)pyrrolidin-1-yl)-3-phenylpropan-2-yl)imidazolidin-4-yl)ethanol], on mMC3R, a half-maximal response (EC50) required 0.36 ± 0.04 µM. Besides, on mMC4R [1], the Kb is 2.51 µM. Also, on mMC4R [2], the “mMC4R Activity @ 10 μM (class)” value was “B (B: >51%)” and the “mMC4R Activity @ 10 μM (relative activity, percent)” value is listed as 58%. On mMC5R, the response was half-maximal at 0.81 ± 0.28 µM (EC50). Further, at mMC1R (setting [3]), the “mMC1R Activity @ 10 μM (class)” value is “B (B: >51%)” and the “mMC1R Activity @ 10 μM (relative activity, percent)” value was 41%.

Turning to `CC(C)C[C@@H]1CNC(=N)N1C[C@@H]1CCCN1C[C@@H](CC1CCCCC1)N1C[C@@H]([C@@H](C)O)N(CC2CCC(C(C)(C)C)CC2)C1=N` (stereo partly drawn) [TPI 2509-5, (R)-1-((S)-3-((4-(tert-butyl)cyclohexyl)methyl)-1-((R)-1-cyclohexyl-3-((S)-2-(((R)-2-imino-5-isobutylimidazolidin-1-yl)methyl)pyrrolidin-1-yl)propan-2-yl)-2-iminoimidazolidin-4-yl)ethanol], the EC50 was 0.21 ± 0.05 µM on mMC3R, 0.14 ± 0.07 µM at mMC5R and 0.3 ± 0.09 µM at mMC1R. At mMC4R [1], this compound gave a Kb of 1.58 µM. Further, the “mMC4R Activity @ 10 μM (relative activity, percent)” value at mMC4R [2] came out at 45%.

Regarding `CC(C)[C@@H]1CNC(=N)N1C[C@@H]1CCCN1C[C@@H](Cc1ccccc1)N1C[C@@H]([C@@H](C)O)N(CC23CC4CC(CC(C4)C2)C3)C1=N` [TPI 2509-31, (R)-1-((S)-3-(adamantan-1-ylmethyl)-2-imino-1-((R)-1-((S)-2-(((R)-2-imino-5-isopropylimidazolidin-1-yl)methyl)pyrrolidin-1-yl)-3-phenylpropan-2-yl)imidazolidin-4-yl)ethanol], the values for the EC50 on mMC3R, on mMC5R and at mMC1R were 0.36 ± 0.01 µM, 0.18 ± 0.09 µM and 0.44 ± 0.14 µM, respectively. Also, the Kb on mMC4R [1] turned out to be 1.58 µM. Also, the “mMC4R Activity @ 10 μM (relative activity, percent)” value on mMC4R [2] amounted to 50%.

By Ki is commonly meant a measure of affinity in units of concentration, obtained from inhibition or displacement. `CC(C)[C@@H]1CNC(=N)N1C[C@@H]1CCCN1C[C@@H](Cc1ccccc1)N1C[C@@H]([C@@H](C)O)N(CC2CCC(C(C)(C)C)CC2)C1=N` (stereo partly drawn) [TPI 2509-32, (R)-1-((S)-3-((4-(tert-butyl)cyclohexyl)methyl)-2-imino-1-((R)-1-((S)-2-(((R)-2-imino-5-isopropylimidazolidin-1-yl)methyl)pyrrolidin-1-yl)-3-phenylpropan-2-yl)imidazolidin-4-yl)ethanol]: the EC50 on mMC3R turned out to be 0.42 ± 0.12 µM; at mMC5R, 0.49 ± 0.155 µM; at mMC1R, 0.6 ± 0.34 µM. Further, on mMC3R, the “EC50 values at the melanocortin-3 receptor (in words)” value is reported as “nanomolar”. At mMC4R [1], this compound registered a Kb of 0.316 µM. At mMC4R [1], the Ki amounted to 0.32 µM. For the same compound, the “mMC4R Antagonist pA2” value on mMC4R [1] (Schild analysis) is given as 6.5±0.5. Moreover, the Emax on mMC4R [2] (read-out: maximal activation at the melanocortin-4 receptor) is more than 20%. Besides, the “mMC4R Activity @ 10 μM (class)” value at mMC4R [2] is listed as “A (A: <50%)”.
